# Assays:
# Assay in all cases: relative viability (nuclei count vs DMSO), 5 days (fraction); higher = more cells survive
# BMX-IN-1 + Phenformin = compound: C=CC(=O)Nc1cc(-n2c(=O)ccc3cnc4ccc(-c5ccc(NS(C)(=O)=O)cc5)cc4c32)ccc1C [BMX-IN-1] + N=C(N)NC(=N)NCCc1ccccc1 [Phenformin] (partner 250 µM)
# Outline: (§1)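 Values are medians from duplicate plates. Each reflects relative viability, defined as the nuclei count of treated wells over that of vehicle wells. Lung cancer cell lines in 1536-well plates were pin-tool dosed one day after seeding with one drug alone or with a fixed anchor-drug dose plus five library-drug doses (not always all listed) in √10 steps, then fixed, stained and imaged at 4× after 5 days.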
# PAC-1 + Phenformin = compound: C=CCc1cccc(/C=N/NC(=O)CN2CCN(Cc3ccccc3)CC2)c1O [PAC-1] + N=C(N)NC(=N)NCCc1ccccc1 [Phenformin] (partner 250 µM)
# Outline: as §1
# Ibrutinib + Palbociclib = compound: C=CC(=O)N1CCC[C@@H](n2nc(-c3ccc(Oc4ccccc4)cc3)c3c(N)ncnc32)C1 [Ibrutinib] + CC(=O)c1c(C)c2cnc(Nc3ccc(N4CCNCC4)cn3)nc2n(C2CCCC2)c1=O [Palbociclib] (partner 0.5 µM)
# Outline: as §1
# BMX-IN-1 + Olaparib = compound: C=CC(=O)Nc1cc(-n2c(=O)ccc3cnc4ccc(-c5ccc(NS(C)(=O)=O)cc5)cc4c32)ccc1C [BMX-IN-1] + O=C(c1cc(Cc2n[nH]c(=O)c3ccccc23)ccc1F)N1CCN(C(=O)C2CC2)CC1 [Olaparib] (partner 8 µM)
# Outline: as §1
Cell Line,relative viability (BMX-IN-1 + Phenformin; first compound 0.02 µM),relative viability (BMX-IN-1 + Phenformin; first compound 0.2 µM),relative viability (BMX-IN-1 + Phenformin; first compound 0.6325 µM),relative viability (BMX-IN-1 + Phenformin; first compound 2 µM),relative viability (PAC-1 + Phenformin; first compound 0.02 µM),relative viability (PAC-1 + Phenformin; first compound 0.06325 µM),relative viability (PAC-1 + Phenformin; first compound 0.2 µM),relative viability (PAC-1 + Phenformin; first compound 2 µM),relative viability (Ibrutinib + Palbociclib; first compound 0.005 µM),relative viability (Ibrutinib + Palbociclib; first compound 0.01581 µM),relative viability (Ibrutinib + Palbociclib; first compound 0.05 µM),relative viability (Ibrutinib + Palbociclib; first compound 0.1581 µM),relative viability (Ibrutinib + Palbociclib; first compound 0.5 µM),relative viability (BMX-IN-1 + Olaparib; first compound 0.02 µM),relative viability (BMX-IN-1 + Olaparib; first compound 0.2 µM),relative viability (BMX-IN-1 + Olaparib; first compound 0.6325 µM),relative viability (BMX-IN-1 + Olaparib; first compound 2 µM)
NCI-H1623,0.527,0.676,0.585,0.601,0.6,0.565,0.592,0.602,,,,,,,,,
HOP-62,0.567,0.869,0.752,0.772,0.692,0.541,0.585,0.647,0.542,0.442,0.42,0.459,0.516,0.403,0.485,0.33,0.379
NCI-H727,0.532,0.546,0.584,0.392,0.463,0.682,0.565,0.52,0.593,0.593,0.644,0.644,0.505,0.555,0.642,0.703,0.688
ChaGo-K-1,0.499,0.517,0.541,0.5,0.462,0.493,0.513,0.439,0.94,0.886,0.953,0.869,0.901,0.435,0.443,0.416,0.417
BEN,0.264,0.259,0.273,0.254,0.273,0.282,0.266,0.302,0.462,0.465,0.491,0.459,0.453,1.26,1.02,1.05,1.15
NCI-H596,0.891,0.981,0.732,0.83,0.739,1.03,0.783,0.785,,,,,,0.712,0.641,0.692,0.755
LU99A,0.817,0.811,1.06,0.759,0.824,0.761,0.908,0.874,0.339,0.391,0.41,0.443,0.391,0.25,0.259,0.265,0.229
NCI-H460,0.917,0.576,0.677,0.609,0.503,0.528,0.483,0.575,0.167,0.19,0.197,0.149,0.202,0.481,0.475,0.445,0.439
NCI-H1648,,,,,,,,,0.279,0.27,0.259,0.297,0.252,0.994,0.849,0.958,0.925
HCC-44,0.321,0.269,0.251,0.262,0.184,0.18,0.17,0.131,0.982,0.977,1.03,0.979,0.92,1.02,0.994,1.03,1.07
NCI-H647,0.537,0.547,0.599,0.661,0.609,0.504,0.431,0.571,0.334,0.385,0.305,0.374,0.538,0.687,1.04,0.553,0.574
Calu-6,,,,,,,,,,,,,,0.533,0.656,0.607,0.565
201T,0.519,0.464,0.483,0.458,0.43,0.47,0.468,0.453,0.225,0.327,0.377,0.378,0.36,0.84,0.904,0.844,0.83
CAL-12T,0.59,0.544,0.579,0.54,0.6,0.657,0.542,0.571,0.241,0.286,0.233,0.286,0.14,0.822,0.71,0.695,0.759
HCC-78,0.726,0.761,0.834,0.697,0.8,0.639,0.809,0.759,0.481,0.472,0.507,0.42,0.414,1.09,0.744,0.804,0.913
LK-2,0.487,0.505,0.473,0.548,0.258,0.479,0.381,0.559,0.469,0.662,0.586,0.542,0.579,0.799,0.69,0.775,0.902
NCI-H522,0.77,0.64,0.669,0.635,0.78,0.662,0.693,0.631,0.865,1.05,0.861,1.01,0.664,0.656,0.689,0.66,0.601
NCI-H322M,0.867,0.821,0.795,0.791,0.716,0.819,0.776,0.762,0.472,0.463,0.479,0.469,0.399,0.781,0.836,0.77,0.72
COR-L 105,0.486,0.458,0.49,0.574,0.465,0.484,0.428,0.455,0.403,0.406,0.424,0.393,0.303,0.735,0.689,0.791,0.641
LOU-NH91,0.411,,0.882,0.704,0.713,0.695,0.668,0.798,0.563,0.499,0.567,0.56,0.513,,0.978,0.946,0.862
PC-3 [JPC-3],0.459,0.488,0.483,0.491,0.484,0.468,0.461,0.489,0.585,0.527,0.515,0.54,0.486,1.25,1.46,1.06,1.1
NCI-H2228,0.339,0.388,0.458,0.37,0.303,0.303,0.306,0.318,0.912,0.687,0.697,0.947,0.779,0.768,0.835,0.667,0.784

Cell Line,relative viability (BMX-IN-1 + Phenformin; first compound 0.02 µM),relative viability (BMX-IN-1 + Phenformin; first compound 0.2 µM),relative viability (BMX-IN-1 + Phenformin; first compound 0.6325 µM),relative viability (BMX-IN-1 + Phenformin; first compound 2 µM),relative viability (PAC-1 + Phenformin; first compound 0.02 µM),relative viability (PAC-1 + Phenformin; first compound 0.06325 µM),relative viability (PAC-1 + Phenformin; first compound 0.2 µM),relative viability (PAC-1 + Phenformin; first compound 2 µM),relative viability (Ibrutinib + Palbociclib; first compound 0.005 µM),relative viability (Ibrutinib + Palbociclib; first compound 0.01581 µM),relative viability (Ibrutinib + Palbociclib; first compound 0.05 µM),relative viability (Ibrutinib + Palbociclib; first compound 0.1581 µM),relative viability (Ibrutinib + Palbociclib; first compound 0.5 µM),relative viability (BMX-IN-1 + Olaparib; first compound 0.02 µM),relative viability (BMX-IN-1 + Olaparib; first compound 0.2 µM),relative viability (BMX-IN-1 + Olaparib; first compound 0.6325 µM),relative viability (BMX-IN-1 + Olaparib; first compound 2 µM)
NCI-H1650,0.493,0.44,0.446,0.413,0.427,0.478,0.411,0.42,0.382,0.305,0.314,0.436,0.243,0.977,0.914,0.762,0.77
LCLC-103H,0.304,0.389,0.319,0.317,0.347,0.322,0.365,0.341,0.498,0.506,0.528,0.481,0.469,0.883,0.886,0.834,0.741
HCC-15,0.501,0.591,0.531,0.506,0.466,0.487,0.457,0.491,0.788,0.705,0.742,0.706,0.73,0.645,0.827,0.706,0.787
UMC-11,0.294,0.316,0.356,0.367,0.325,0.368,0.298,0.326,,0.335,0.359,0.417,0.355,0.402,0.389,0.364,0.364
NCI-H2087,0.462,0.572,0.508,0.443,0.398,0.42,0.344,0.377,0.243,0.217,0.161,,,0.627,0.62,0.556,0.643
NCI-H3122,0.377,0.633,0.41,0.38,0.378,0.377,0.365,0.333,0.188,0.178,0.184,0.176,0.196,0.678,0.781,0.672,0.64
NCI-H661,0.242,0.259,0.282,0.255,0.255,0.299,0.278,0.29,0.365,0.337,0.332,0.366,0.304,0.963,0.758,0.81,0.738
NCI-H1703,,,,,,,,,,,,,,0.486,0.368,0.284,0.336
NCI-H2342,0.651,0.7,0.55,0.617,0.552,0.474,0.579,0.611,0.495,0.519,0.496,0.486,0.502,0.44,0.446,0.473,0.43
NCI-H838,0.564,0.739,0.744,0.572,0.509,0.585,0.46,0.572,0.178,0.209,0.202,0.202,0.234,0.81,0.933,0.915,0.859
ABC-1,0.227,0.232,0.243,0.229,0.217,0.231,0.24,0.21,0.482,0.439,,,0.733,0.749,1.02,0.815,0.978
NCI-H441,0.864,1.02,0.991,1,0.881,0.993,0.705,0.752,0.2,0.199,0.216,0.138,0.157,0.52,0.658,0.619,0.591
NCI-H2126,0.517,0.559,0.581,0.526,0.515,0.524,0.517,0.513,0.348,0.322,0.34,0.342,0.345,0.979,0.897,1.03,0.875
NCI-H1651,0.292,0.451,0.394,0.363,0.364,0.341,0.29,0.333,0.529,0.5,0.533,0.489,0.51,0.175,0.182,0.18,0.183
NCI-H1734,0.341,0.431,0.461,0.415,0.366,0.36,0.373,0.388,0.374,0.332,0.384,0.346,0.357,0.645,0.683,0.689,0.604
NCI-H1915,0.32,0.387,0.389,0.37,0.364,0.358,0.345,0.365,0.519,0.517,0.554,0.506,0.532,0.267,0.27,0.263,0.246
NCI-H2023,0.466,0.522,0.418,0.413,0.427,0.404,0.405,0.397,0.33,0.292,0.346,0.41,0.311,0.516,0.655,0.47,0.489
NCI-H1299,,,,,,,,,,,,,,1.05,0.978,0.992,1.03
EBC-1,,,,,,,,,,,,,,0.734,0.689,0.779,0.762
IA-LM,,,,,,,,,,,,,,0.871,0.843,0.938,0.94
NCI-H1563,0.664,0.644,0.648,0.642,0.655,0.679,0.663,0.66,,,,,,,,,
A549,0.164,1.01,0.17,0.188,0.22,0.167,0.139,0.171,,,,,,0.286,0.392,0.249,0.306
